The values below come from patent publication US20230312601A1, “THIAZOLO[5,4-B]PYRIDINE MALT-1 INHIBITORS” (AbbVie Inc., priority 2022, published 2023).

One data set has as its target human MALT-1 protein (Homo sapiens (Human), UniProt Q9UDY8). The data set is described as follows: MALT-1 Biochemical Assay (Quench-FRET enzyme assay). The conditions noted are these: human MALT-1 6 nM, substrate 2 μM, 40 min preincubation. The method, boiled down:
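Human MALT-1 (6 nM) preincubated 40 min at room temperature with compound in pH 7.5 HEPES buffer containing 0.8 M sodium citrate and 2 mM DTT. Then 2 μM quenched TAMRA/QSY7 peptide substrate added for 60 min. Cleavage read by fluorescence (Ex 535/Em 590); EC50 is half-maximal inhibition of protease activity.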

The test system of a further data set is OCI-LY3 IL6. The data set is described as follows: MALT-1 Cell IL-6 AlphaLISA Assay. In kind it is cell-based. As to conditions: Homo sapiens; OCI-LY3 cells, 48 hours incubation; read-out: OCI-LY3 IL6 48 hour Inhibition EC50. In outline: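 MALT-1-dependent ABC-DLBCL OCI-LY3 cells were seeded at 50,000 cells/mL onto compound (30 μM to 1.5 nM) and incubated 48 hours at 37° C. Secreted human IL-6 in the medium was measured by AlphaLISA with acceptor beads, biotinylated anti-IL-6 antibody and streptavidin donor beads.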
(In general: Bead proximity is the source of the signal in Alpha formats.)

A further data set has as its system CYP 3A4 mRNA. The data set is described as follows: CYP3A4 Induction Assay (qPCR, human hepatocytes). In kind it is in vitro ADME. As to conditions: 10 μM compound, relative to rifampicin 10 μM. In outline: (§1)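 Cryopreserved human hepatocytes (60,000 cells/well), overlaid with Geltrex, were dosed at 10 μM final, with omeprazole, rifampicin and probenecid as controls. RNA was isolated on day 3. CYP3A4 mRNA was measured by TaqMan RT-qPCR with GAPDH as the reference gene.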

For a further data set, the system named is CYP3A4 mRNA. The data set is described as follows: CYP3A4 Induction Assay (qPCR, human hepatocytes). It counts as in vitro ADME. As to conditions: cryopreserved human hepatocytes (plated), 10 μM compound, mRNA fold over vehicle (0.1% DMSO). In outline: as §1
(In general: In qPCR the cycle at which signal appears reflects the starting amount.)

human MALT-1 protein, sequence (Q9UDY8 whole entry): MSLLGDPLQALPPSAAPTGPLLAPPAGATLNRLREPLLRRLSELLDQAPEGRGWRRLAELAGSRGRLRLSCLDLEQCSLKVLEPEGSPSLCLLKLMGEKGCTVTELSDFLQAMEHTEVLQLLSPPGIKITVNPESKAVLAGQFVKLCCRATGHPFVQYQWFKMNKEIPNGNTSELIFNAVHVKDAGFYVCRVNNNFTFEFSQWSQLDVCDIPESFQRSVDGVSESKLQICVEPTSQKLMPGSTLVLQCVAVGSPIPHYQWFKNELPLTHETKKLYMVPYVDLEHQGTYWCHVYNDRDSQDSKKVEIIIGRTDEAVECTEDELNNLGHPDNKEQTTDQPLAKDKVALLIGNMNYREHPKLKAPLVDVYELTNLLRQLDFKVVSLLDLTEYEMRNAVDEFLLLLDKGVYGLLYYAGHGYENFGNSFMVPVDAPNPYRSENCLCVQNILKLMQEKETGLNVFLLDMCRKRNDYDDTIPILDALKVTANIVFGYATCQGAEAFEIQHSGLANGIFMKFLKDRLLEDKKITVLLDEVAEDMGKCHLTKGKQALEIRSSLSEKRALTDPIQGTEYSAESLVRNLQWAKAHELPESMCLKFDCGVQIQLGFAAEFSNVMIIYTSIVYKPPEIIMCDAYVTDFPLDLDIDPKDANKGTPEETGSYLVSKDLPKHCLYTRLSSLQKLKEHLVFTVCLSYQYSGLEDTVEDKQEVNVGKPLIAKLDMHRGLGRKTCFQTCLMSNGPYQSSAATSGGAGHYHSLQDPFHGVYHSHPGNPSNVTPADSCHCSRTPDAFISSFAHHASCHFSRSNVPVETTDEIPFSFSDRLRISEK

`CO[C@@H](C)c1c(Nc2ccc([C@H](N(C)C(=O)C3CCN(C(=O)[C@@H](O)CO)CC3)C(F)(F)F)cc2)cnc2sc(C)nc12` [Example 30, 1-[(25)-2,3-dihydroxypropanoyl]-N-methyl-N-{(1S)-2,2,2-trifluoro-1-[4-({7-[(1S)-1-methoxyethyl]-2-methyl[1,3]thiazolo[5,4-b]pyridin-6-yl}amino)phenyl]ethyl}piperidine-4-carboxamide]: the EC50 (commonly the concentration that produces a half-maximal response) came out at 82 nM at human MALT-1 protein and 710 nM with OCI-LY3 IL6. Also, the “CYP3A4 % of positive control (%)” value in the data set on CYP 3A4 mRNA was “(5) %”. The fold induction (commonly the ratio of treated to control signal) at 1 day, 10 µM with CYP3A4 mRNA worked out at 1.49.

Regarding `CO[C@@H](C)c1c(Nc2ccc([C@@H](C(F)F)N(C)C(=O)C3CCS(=O)(=O)CC3)cc2)cnc2sc(C)nc12` [Example 4, N-{(1S)-2,2-difluoro-1-[4-({7-[(1S)-1-methoxyethyl]-2-methyl[1,3]thiazolo[5,4-b]pyridin-6-y1}amino)phenyl]ethyl} -N-methyl-1,1-dioxo-1λ^6-thiane-4-carboxamide], the EC50 was 158 nM at human MALT-1 protein and 1330 nM in the data set on OCI-LY3 IL6. Also, in the data set with CYP 3A4 mRNA, the “CYP3A4 % of positive control (%)” value is on record as “(16.1) %”. Also, in the data set with CYP3A4 mRNA, the fold induction at 1 day, 10 µM amounted to 1.98.

For the compound `CO[C@H](c1c(Nc2ccc([C@H](N(C)C(=O)C3CCN(C(C)=O)CC3)C(F)(F)F)cc2)cnc2sc(C)nc12)C(F)F` [Example 18, 1-acetyl-N-{(1,5)-1-[4({7-[(1R)-2,2-difluoro-1-methoxyethyl]-2-methyl[1,3]thiazolo [5,4-b]pyridin-6-yl}amino)phenyl]-2,2,2-trifluoroethyl}-N-methylpiperidine-4-carboxamide], the EC50 at human MALT-1 protein turned out to be 284 nM; in the data set on OCI-LY3 IL6 it was 1150 nM. The “CYP3A4 % of positive control (%)” value in the data set on CYP 3A4 mRNA is listed as “(16.5) %”. The same compound gave a fold induction at 1 day, 10 µM with CYP3A4 mRNA of 2.8.

Regarding `CO[C@@H](C)c1c(Nc2ccc([C@H](N(C)C(=O)C3CCN(C(=O)[C@H](C)O)CC3)C(F)(F)F)cc2)cnc2sc(C)nc12` [Example 26, 1-[(2S)-2-hydroxypropanoyl]-N-methyl-N-{(1S)-2,2,2-trifluoro-1-[4-({7-[(1S)-1-methoxyethyl]-2-methyl[1,3]thiazolo [5,4-b]pyridin-6-yl}amino)phenyl]ethyl}piperidine-4-c arboxamide], the EC50 worked out at 393 nM on human MALT-1 protein and 1150 nM in the data set with OCI-LY3 IL6. Besides, the “CYP3A4 % of positive control (%)” value with CYP 3A4 mRNA was “(2.57) %”. This compound also yielded a fold induction at 1 day, 10 µM in the data set on CYP3A4 mRNA of 1.17.

Turning to `Cc1nc2c([C@@H](C)C(F)(F)F)c(Nc3ccc([C@H](N(C)C(=O)C4CCS(=O)(=O)CC4)C(F)(F)F)cc3)cnc2s1` (single isomer, unassigned) [Example 38], the EC50 turned out to be 156 nM at human MALT-1 protein and 190 nM with OCI-LY3 IL6. Further, the “CYP3A4 % of positive control (%)” value with CYP 3A4 mRNA was “(19.9) %”. Besides, the fold induction at 1 day, 10 µM in the data set with CYP3A4 mRNA amounted to 2.72.

With `CO[C@H](C)c1c(Nc2ccc([C@H](N(C)C(=O)C3CCN(C(C)=O)CC3)C(F)(F)F)cc2)cnc2sc(C)nc12` [Example 35, 1-acetyl-N-methyl-N-{(1S)-2,2,2-trifluoro-1-[4-({7-[(1R)-1-methoxyethyl]-2-methyl[1,3]thiazolo [5,4-b]pyridin-6-yl}amino)phenyl]ethyl}piperidine-4-carboxamide], the results for the EC50 on human MALT-1 protein and with OCI-LY3 IL6 were 500 nM and 7300 nM, respectively. The “CYP3A4 % of positive control (%)” value with CYP 3A4 mRNA is given as “(17) %”. This compound also displayed a fold induction at 1 day, 10 µM with CYP3A4 mRNA of 2.45.

For `Cc1nc2c([C@H](C)C(F)(F)F)c(Nc3ccc([C@H](N(C)C(=O)C4CCS(=O)(=O)CC4)C(F)(F)F)cc3)cnc2s1` (single isomer, unassigned) [Example 39], the EC50 worked out at 83 nM on human MALT-1 protein and 40 nM in the data set on OCI-LY3 IL6. In addition, the “CYP3A4 % of positive control (%)” value in the data set with CYP 3A4 mRNA is given as “(14.9) %”. Also, the fold induction at 1 day, 10 µM in the data set on CYP3A4 mRNA came to 2.29.
